Laboratory results from US20250320190A1, “Novel Inhibitors of Leucine Carboxyl Methyltransferase-1 (LCMT-1) and Methods of Use Thereof” (Temple University-Of The Commonwealth System of Higher …, priority 2024, published 2025).

What was measured:
Type in all cases: cell-based, human
MCF7 cells [1] = assay: Western blots; settings: 20 μM
Description: (§1) MCF7, MDA-MB-231 and Rosi cells were treated with Compound 1 or Compound 2 at a concentration of 20 μM in complete medium, and lysates were harvested after 2, 4, 6, 8 and 12 hours in radioimmunoprecipitation assay buffer containing protease inhibitors (Boster Bio, Pleasanton, California, catalog #AR1182-1) and phosphatase inhibitors (Santa Cruz Biotechnology catalog #sc-45044 and #sc-45045). Protein concentrations were measured with a bicinchoninic acid assay (G-Biosciences, Saint Louis, Missouri). Fifty micrograms of each lysate were used for bis-tris polyacrylamide gel electrophoresis. Resolved lysates were transferred to nitrocellulose membranes. Membranes were blocked with TBS with 5% bovine serum albumin before incubation with primary antibodies.
(§2) Antibodies obtained from Cell Signaling Technology (Danvers Massachusetts) were, anti-PP2Ac (catalog #2038, 1:1,000 dilution), anti-phospho-adenosine monophosphate-activated protein kinase (pAMPKα2 threonine 172, catalog #2535, 1:1,000 dilution). Antibodies obtained from Proteintech (Rosemont, Illinois) include anti-phospho-receptor-interacting serine/threonine protein kinase-1 antibodies (pRIPK1 serine 161 (catalog #66854-1-Ig, 1:1,000 dilution) and pRIPK1 serine 166 (catalog #28252-1-AP, 1:10,000 dilution), anti-mixed lineage kinase domain like pseudokinase (MLKL, catalog #66675-1-Ig, 1:5,000 dilution), anti-AMPKα2, anti-phospho-acetyl-coenzyme A carboxylase (pACC1 serine 79, catalog #29119-1-AP, 1:1,000 dilution), anti-ACC1 (catalog #21923-1-AP, 1:2,000 dilution) and anti-β-actin (catalog #66009-1-Ig, 1:50,000 dilution). The anti-RIPKI antibody was obtained from AbClonal (Woburn, Massachusetts, catalog #A7414, 1:750 dilution). The anti-phospho-MLKL antibody was obtained from R&D Systems (Minneapolis, Minnesota, 1:1,000 dilution). The LCMT-1 antibody was obtained from Origene (Rockville, Maryland, catalog #TA503127S, 1:2,000 dilution). Appropriate IR-dye secondary antibodies were used (Alexa Fluor® 790-conjugated anti-mouse (catalog #115-655-146, 1:50,000 dilution), Alexa Fluor® 680-conjugated anti-mouse (catalog #115-625-146, 1:50,000 dilution), and Alexa Fluor® 680-conjugated anti-rabbit (catalog #115-625-144, 1:50,000 dilution) were obtained from Jackson ImmunoResearch Laboratories (West Grove, Pennsylvania). Band densities were normalized to β-actin, the endogenous control. At least five replicates were used for statistical analyses.

MDA-MB-231 cells [2] = assay: Western blots; settings: 20 μM
Description: as §1, §2

Rosi cells [3] = assay: Western blots; settings: 20 μM
Description: as §1, §2

[4] = system: MDA-MB-231 cells transfected with the LCMT-1 expression vector; assay: Cytotoxicity assay in LCMT-1-transfected cells; settings: MDA-MB-231 transfected with LCMT-1 vector
Description: MDA-MB-231 cells were also transfected with the LCMT-1 expression vector using Lipofectamine 3000 transfection reagent (Thermo Fisher Scientific, Waltham, Massachusetts) according to the manufacturer's transfection protocol for MDA-MB-231 cells. After 5 hours the medium was changed. The cells were split 1:100 the following day, and 2 days after transfection, selection with G418 sulfate (Mediatech, Herndon, Virginia) at […] for 2 weeks commenced to develop stably transfected cells. After the selection process, cells were used in Compound 2 cytotoxicity assays as previously described.

MCF7 cells [5] = assay: Colony forming assay; settings: 50-3.25 μM, one week
Description: (§3) MCF7, MDA-MB-231 and Rosi cells were seeded in 96-well tissue culture plates (Celltreat, Pepperell, Massachusetts) at a density of 90 cells per well (Mayr et al. Int J Mol Sci. 2018; 19(3)). After 24 hours, the media were changed to media containing LB-100 or Compound 2 at various concentrations (50-3.25 μM). Control cells were given fresh media. After one week the media were aspirated and the wells were washed with PBS. Cells were stained with crystal violet solution (0.25 g crystal violet in 20% methanol) for 10 minutes. The wells were washed 6 times with PBS to remove excess crystal violet. Colonies were counted with an ECHO Revolve hybrid microscope at 1.5× magnification. There were ten replicates for each condition.

MDA-MB-231 cells [6] = assay: Colony forming assay; settings: 50-3.25 μM, one week
Description: as §3

Rosi cells [7] = assay: Colony forming assay; settings: 50-3.25 μM, one week
Description: as §3

MCF7 cells [8] = assay: Cell cycle analysis (BrdU flow cytometry); settings: 20 μM, 24 hours
Description: (§4) MCF7, MDA-MB-231 and Rosi cells were seeded in 6-well tissue culture plates (Celltreat) at a density of 5×10^5 cells per well. After 24 hours, the DMEM was changed to media containing 20 μM LB-100 or Compound 2. Control cells were given fresh media. After 24 hours, cells were labeled with 50 μM bromodeoxyuridine (BrdU, BioGems, Westlake Village, California, catalog #5911439). Cells were lifted with 0.25% trypsin, 2.21 mM ethylenediaminetetraacetic acid (Corning catalog #25-053-CI) after 4 hours and fixed with 70% ethanol overnight at 4° C. Cells were pelleted and cellular DNA was denatured with HCl. After neutralization with 1 M Tris, pH 8.5, cells were labeled with FITC-anti-BrdU (Biolegend, San Diego, California, catalog #364104, 5 μL/100 μL cell suspension) and 7-aminoactinomycin-D (7-AAD, Biolegend, catalog #420404, 1 μL/100 μL cell suspension). Cells were analyzed with a Becton-Dickinson FACSymphony™ flow cytometer. Cell cycle analyses were performed three times.

MDA-MB-231 cells [9] = assay: Cell cycle analysis (BrdU flow cytometry); settings: 20 μM, 24 hours
Description: as §4

Rosi cells [10] = assay: Cell cycle analysis (BrdU flow cytometry); settings: 20 μM, 24 hours
Description: as §4

COC(=O)c1c(NC(=O)c2ccccc2C)sc(C(=O)Nc2cccc(C)c2)c1C [Compound 2, methyl 4-methyl-2-[(2-methylbenzoyl)amino]-5-[[(3-methylphenyl)amino]carbonyl]-3-thiophenecarboxylate]
RIPK1 phosphorylation at serine 161 (MCF7 cells [1]): did not statistically increase
phosphorylation of ACC1 (MCF7 cells [1]): increased phosphorylation of ACC1
phosphorylation of AMPK (MCF7 cells [1]): Increased phosphorylation of AMPK was not found
phosphorylation of MLKL (MCF7 cells [1]): Increased phosphorylation of MLKL was noted
cytosolic PP2Ab expression (MCF7 cells [1]; after 4-6 hours of exposure): decreased cytosolic PP2Ab expression
PP2Ac methylation (MCF7 cells [1]; lysates after 2, 4, 6, 8 and 12 hours): did not significantly decrease methylation of PP2Ac
RIPK1 phosphorylation at serine 161 (MDA-MB-231 cells [2]): increased RIPK1 phosphorylation at serine 161
cytosolic PP2Ab expression (MDA-MB-231 cells [2]): did not change cytosolic expression PP2Ab
phosphorylation of AMPK (MDA-MB-231 cells [2]): Increased phosphorylation of AMPK was not found
phosphorylation of MLKL (MDA-MB-231 cells [2]): not in MDA-MB-231 cells
PP2Ac methylation (MDA-MB-231 cells [2]; Compound 2 significant at 4 hours): decreased PP2Ac methylation
RIPK1 phosphorylation at serine 161 (Rosi cells [3]): increased RIPK1 phosphorylation at serine 161
phosphorylation of ACC1 (Rosi cells [3]): increased phosphorylation of ACC1
phosphorylation of AMPK (Rosi cells [3]): Increased phosphorylation of AMPK was not found
phosphorylation of MLKL (Rosi cells [3]): Increased phosphorylation of MLKL was noted
PP2Ac methylation (Rosi cells [3]; Compound 2 significant at 6 hours): decreased PP2Ac methylation
cytosolic PP2Ab expression (Rosi cells [3]; after 4-6 hours of exposure): decreased cytosolic PP2Ab expression
effect of LCMT-1 overexpression on Compound 2-mediated cell death [4]: induced resistance to Compound 2-mediated cell death
clonogenic colony formation (MCF7 cells [5]): inhibited to a lesser extent
clonogenic colony formation (MDA-MB-231 cells [6]): inhibited colony formation
clonogenic colony formation (Rosi cells [7]): inhibited colony formation
cell cycle effect (MCF7 cells [8]): did not change cell cycle dynamics
cell cycle effect (MDA-MB-231 cells [9]): did not change cell cycle dynamics
cell cycle effect (Rosi cells [10]): induced G0/G1 arrest
